We go through two compounds from patent US20240368232A1, “ANTIVIRAL LARAZOTIDE DERIVATIVES” (priority 2021, published 2024).

For test [1], the system named is SARS-COV-2 SA (RG) strain. Put plainly: microbe, parasite or virus in culture. The following applies: Severe acute respiratory syndrome coronavirus 2, Vero, read-out: Antiviral activity EC50 SA (RG) strain Vero cells.
Test [2] deals with SARS-COV-2 SA (RG) strain.

As usually defined, the EC50 is the concentration giving half of the maximal effect.

Read-outs that look alike come from different tables or passages of the source. Square brackets hold non-standard residues; d marks the D form. Peptide text beside a SMILES is read from it. Bounds are passed on as bounds.

`CCC(CC)COC(=O)[C@H](C)N[P@](=O)(OC[C@H]1O[C@@](C#N)(c2ccc3c(N)ncnn23)[C@H](O)[C@@H]1O)Oc1ccccc1` [Remdesivir]: in test [1], the EC50 was found to be 840 nM.

Regarding `CC(=O)NCC(=O)N[C@H](Cc1ccccc1)C(=O)N[C@H](C=O)Cc1c[nH]cn1` [TRIP 5] (Ac-Gly-[dF]-His-aldehyde), in test [2], the EC50 is > 100000 nM.
